Test results as given in patent US8236792B2, “Substituted pyrrolidine amides as modulators of the histamine H3 receptor” (Janssen Pharmaceutica NV, priority 2008, dated 2012).
pKi: −log10 of the molar value.

Biological target: T1, cloned human H3 receptors (Homo sapiens, UniProt Q9Y5N1)
T1 construct: expressed in transfected cells
Experiment: H3 Receptor Binding (Human) Method 1
Conditions: receptor stably expressed in SK-N-MC cells, free base forms, average of results

T1 sequence (Q9Y5N1 whole entry): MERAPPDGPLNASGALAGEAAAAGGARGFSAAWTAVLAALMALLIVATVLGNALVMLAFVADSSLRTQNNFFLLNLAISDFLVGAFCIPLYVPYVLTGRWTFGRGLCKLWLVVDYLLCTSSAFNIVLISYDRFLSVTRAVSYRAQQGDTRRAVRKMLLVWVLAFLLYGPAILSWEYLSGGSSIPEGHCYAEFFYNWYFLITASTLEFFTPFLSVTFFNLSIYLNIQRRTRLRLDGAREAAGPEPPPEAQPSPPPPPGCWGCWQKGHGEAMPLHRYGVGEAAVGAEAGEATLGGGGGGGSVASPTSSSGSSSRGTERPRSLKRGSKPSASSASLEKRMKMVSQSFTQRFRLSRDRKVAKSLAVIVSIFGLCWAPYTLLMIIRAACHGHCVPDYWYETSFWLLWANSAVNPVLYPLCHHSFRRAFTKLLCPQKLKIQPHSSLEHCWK

Structure (SMILES)	pKi
CC(C)(C)OC(=O)N1C[C@H](O)C[C@H]1C(=O)N1CCCN(C2CCC2)CC1 [Example 1, (2S,4R)-2-(4-Cyclobutyl-[1,4]diazepane-1-carbonyl)-4-hydroxy-pyrrolidine-1-carboxylic acid tert-butyl Ester]	7.15
CC(C)(C)OC(=O)N1C[C@H](O)C[C@H]1C(=O)N1CCN(C2CCC2)CC1 [Example 2, (2S,4R)-2-(4-Cyclobutyl-piperazine-1-carbonyl)-4-hydroxy-pyrrolidine-1-carboxylic acid tert-butyl Ester]	< 5.00

Now from value to compound:

pKi	Structure (SMILES)
7.74	CC(C)(C)OC(=O)N1CC(Oc2cccc(F)c2)C[C@H]1C(=O)N1CCCN(C2CCC2)CC1 (mixture of isomers) [Example 41, (2S)-2-(4-Cyclobutyl-[1,4]diazepane-1-carbonyl)-4-(3-fluoro-phenoxy)-pyrrolidine-1-carboxylic acid tert-butyl ester]
7.43	CC(C)(C)OC(=O)N1C[C@@H](Oc2ccc(F)cc2)C[C@H]1C(=O)N1CCCN(C2CCC2)CC1 [Example 11, (2S,4S)-2-(4-Cyclobutyl-[1,4]diazepane-1-carbonyl)-4-(4-fluoro-phenoxy)-pyrrolidine-1-carboxylic acid tert-butyl ester]
< 5.82	CC(C)(C)OC(=O)N1C[C@@H](Oc2ccc(F)cc2)C[C@H]1C(=O)N1CCN(C2CCC2)CC1 [Example 12, (2S,4S)-2-(4-Cyclobutyl-piperazine-1-carbonyl)-4-(4-fluoro-phenoxy)-pyrrolidine-1-carboxylic acid tert-butyl ester]
7.60	CC(C)(C)OC(=O)N1C[C@H](Oc2ccc(F)cc2)C[C@H]1C(=O)N1CCCN(C2CCC2)CC1 [Example 15, (2S,4R)-2-(4-Cyclobutyl-[1,4]diazepane-1-carbonyl)-4-(4-fluoro-phenoxy)-pyrrolidine-1-carboxylic acid tert-butyl ester]
8.30	CC(C)(C)OC(=O)N1C[C@@H](Oc2ccc(F)cc2)C[C@@H]1C(=O)N1CCCN(C2CCC2)CC1 [Example 18, (2R,4S)-2-(4-Cyclobutyl-[1,4]diazepane-1-carbonyl)-4-(4-fluoro-phenoxy)-pyrrolidine-1-carboxylic acid tert-butyl ester]

Biological target: human H3 receptor (Homo sapiens, UniProt Q9Y5N1)
Experiment: H3 Receptor Binding (Human) Method 2, [125I]-iodoproxyfan competitive radioligand binding
Design: expressed in transfected cells
Conditions: Method 2; SK-N-MC cell membranes; [125I]-iodoproxyfan 1 nM; apparent Ki; free base or hydrochloride salt; average of results; read-out: Human H3 Ki
Procedure: SK-N-MC cells expressing the human H3 receptor were grown to confluence and tissue culture plates, washed with phosphate-buffered saline, and scraped into 50 mL tubes. After centrifugation, the supernatant was aspirated, and the pellets frozen and stored at −80° C. […] The homogenate was centrifuged at 25000×g for 25 min. […] Reactions were stopped by filtration through GF/B filter plates pre-soaked in 0.3% polyethylenimine and subsequently washed with Tris 50 mM, 5 mM EDTA buffer. Plates were dried for 1 h in a 55° C. oven. Scintillation fluid was added and the radioactivity was counted in a Packard TopCount. Non-specific binding to the H3 receptor was defined by radioactivity that was bound in the presence of 100 μM histamine.
Compounds were tested in their free base or hydrochloride salt forms.

Chain of human H3 receptor (Q9Y5N1 whole entry): as above

pKi	Structure (SMILES)
7.89	O=C([C@H]1C[C@H](Oc2ccc(F)cc2)CN1C1CC1)N1CCCN(C2CCC2)CC1 [Example 142, (2R,4S)-1-Cyclopropyl-2-(4-cyclobutyl-[1,4]diazepane-1-carbonyl)-4-(4-fluoro-phenoxy)-pyrrolidine]
7.36	O=C(N1CCCN(C2CCC2)CC1)[C@@]1(Cc2cccc(F)c2)CCCN1 [Example 168, (2S)-2-(4-Cyclobutyl-[1,4]diazepane-1-carbonyl)-2-(3-fluoro-benzyl)-pyrrolidine]
6.70	O=C(N1CCCN(C2CCC2)CC1)[C@@]1(Cc2ccc(C(F)(F)F)cc2)CCCN1 [Example 170, (2S)-(4-Cyclobutyl-[1,4]diazepan-1-yl)-[2-(4-trifluoromethyl-benzyl)-pyrrolidin-2-yl]-methanone]
7.96	O=C(N1CCCN(C2CCC2)CC1)[C@@]1(Cc2ccccc2)CCCN1 [Example 171, (2S)-(2-Benzyl-pyrrolidin-2-yl)-(4-cyclobutyl-[1,4]diazepan-1-yl)-methanone]

Same assay, conditions: read-out: Human H3 Ki

Structure (SMILES)	pKi
CC(C)(C)OC(=O)N1CC[C@@H](Oc2cccc(F)c2)[C@H]1C(=O)N1CCCN(C2CCC2)CC1 [Example 143, (2S,3R)-2-(4-Cyclobutyl-[1,4]diazepane-1-carbonyl)-3-(3-fluoro-phenoxy)-pyrrolidine-1-carboxylic acid tert-butyl ester]	6.07
CC(C)(C)OC(=O)N1CC[C@@H](Oc2ccc(C#N)cc2)[C@H]1C(=O)N1CCCN(C2CCC2)CC1 [Example 145, (2S,3R)-3-(4-Cyano-phenoxy)-2-(4-cyclobutyl-[1,4]diazepane-1-carbonyl)-pyrrolidine-1-carboxylic acid tert-butyl ester]	5.96
CC(=O)N1C[C@@H](Oc2cccc(F)c2)C[C@@H]1C(=O)N1CCCNCC1 [Example 156, (2R,4S)-4-[1-Acetyl-4-(3-fluoro-Phenoxy)-pyrrolidine-2-carbonyl]-[1,4]diazepane]	5.94
CC(C)(C)OC(=O)N1CCC[C@]1(Cc1cccc(F)c1)C(=O)N1CCCN(C2CCC2)CC1 [Example 164, (2S)-2-(4-Cyclobutyl-[1,4]diazepane-1-carbonyl)-2-(3-fluoro-benzyl)-pyrrolidine-1-carboxylic acid tert-butyl ester]	7.28
CC(C)(C)OC(=O)N1CCC[C@]1(Cc1ccc(F)cc1)C(=O)N1CCCN(C2CCC2)CC1 [Example 165, (2S)-2-(4-Cyclobutyl-[1,4]diazepane-1-carbonyl)-2-(4-fluoro-benzyl)-pyrrolidine-1-carboxylic acid tert-butyl ester]	6.59
CC(C)(C)OC(=O)N1CCC[C@]1(Cc1ccc(C(F)(F)F)cc1)C(=O)N1CCCN(C2CCC2)CC1 [Example 166, (2S)-2-(4-Cyclobutyl-[1,4]diazepane-1-carbonyl)-2-(4-trifluoromethyl-benzyl)-pyrrolidine-1-carboxylic acid tert-butyl ester]	7.22
CC(C)(C)OC(=O)N1CCC[C@]1(Cc1ccccc1)C(=O)N1CCCN(C2CCC2)CC1 [Example 167, (2S)-2-Benzyl-2-(4-cyclobutyl-[1,4]diazepane-1-carbonyl)-pyrrolidine-1-carboxylic acid tert-butyl ester]	7.29
O=C(N1CCCN(C2CCC2)CC1)[C@@]1(Cc2ccc(F)cc2)CCCN1 [Example 169, (2S)-(4-Cyclobutyl-[1,4]diazepan-1-yl)-[2-(4-fluoro-benzyl)-pyrrolidin-2-yl]-methanone]	7.57
CC(C)(C)OC(=O)N1C[C@H](Cc2ccccc2)C[C@H]1C(=O)N1CCCN(C2CCC2)CC1 [Example 173, (2S,4R)-4-Benzyl-2-(4-cyclobutyl-[1,4]diazepane-1-carbonyl)-pyrrolidine-1-carboxylic acid tert-butyl ester]	7.41
CC(C)(C)OC(=O)N1C[C@H](Cc2ccsc2)C[C@H]1C(=O)N1CCCN(C2CCC2)CC1 [Example 176, (2S,4R)-2-(4-Cyclobutyl-[1,4]diazepane-1-carbonyl)-4-thiophen-3-ylmethyl-pyrrolidine-1-carboxylic acid tert-butyl ester]	7.70
O=C([C@@H]1C[C@@H](Cc2ccccc2)CN1)N1CCCN(C2CCC2)CC1 [Example 177, (2S,4R)-(4-Benzyl-pyrrolidin-2-yl)-(4-cyclobutyl-[1,4]diazepan-1-yl)-methanone]	6.58
O=C([C@@H]1C[C@@H](Cc2ccc(F)cc2)CN1)N1CCCN(C2CCC2)CC1 [Example 178, (2S,4R)-(4-Cyclobutyl-[1,4]diazepan-1-yl)-[4-(4-fluoro-benzyl)-pyrrolidin-2-yl]-methanone]	6.52
O=C([C@@H]1C[C@@H](Cc2cccc(F)c2)CN1)N1CCCN(C2CCC2)CC1 [Example 179, (2S,4R)-(4-Cyclobutyl-[1,4]diazepan-1-yl)-[4-(3-fluoro-benzyl)-pyrrolidin-2-yl]-methanone]	6.46
O=C([C@@H]1C[C@@H](Cc2ccsc2)CN1)N1CCCN(C2CCC2)CC1 [Example 180, (2S,4R)-(4-Cyclobutyl-[1,4]diazepan-1-yl)-(4-thiophen-3-ylmethyl-pyrrolidin-2-yl)-methanone]	7.30
CC(=O)N1C[C@H](Cc2ccc(F)cc2)C[C@H]1C(=O)N1CCCN(C2CCC2)CC1 [Example 181]	5.68
CC(=O)N1C[C@H](Cc2cccc(F)c2)C[C@H]1C(=O)N1CCCN(C2CCC2)CC1 [Example 182]	5.93
CC(=O)N1C[C@H](Cc2ccsc2)C[C@H]1C(=O)N1CCCN(C2CCC2)CC1 [Example 183]	6.69

Other lines, results leading:

pKi	Structure (SMILES)
6.02	CC(C)(C)OC(=O)N1CC[C@@H](Oc2ccc(F)cc2)[C@H]1C(=O)N1CCCN(C2CCC2)CC1 [Example 144, (2S,3R)-2-(4-Cyclobutyl-[1,4]diazepane-1-carbonyl)-3-(4-fluoro-phenoxy)-pyrrolidine-1-carboxylic acid tert-butyl ester]
5.83	CSc1ccc(O[C@@H]2CCN(C(=O)OC(C)(C)C)[C@@H]2C(=O)N2CCCN(C3CCC3)CC2)cc1 [Example 146, (2S,3R)-2-(4-Cyclobutyl-[1,4]diazepane-1-carbonyl)-3-(4-methylsulfanyl-phenoxy)-pyrrolidine-1-carboxylic acid tert-butyl ester]
8.10	CC(C)(C)OC(=O)N1C[C@@H](OCc2cccc(F)c2)C[C@@H]1C(=O)N1CCCN(C2CCC2)CC1 [Example 147, (2R,4S)-2-(4-Cyclobutyl-[1,4]diazepane-1-carbonyl)-4-(3-fluoro-benzyloxy)-pyrrolidine-1-carboxylic acid tert-butyl ester]
8.22	CC(C)(C)OC(=O)N1C[C@@H](OCc2ccc(F)cc2)C[C@@H]1C(=O)N1CCCN(C2CCC2)CC1 [Example 148, (2R,4S)-2-(4-Cyclobutyl-[1,4]diazepane-1-carbonyl)-4-(4-fluoro-benzyloxy)-pyrrolidine-1-carboxylic acid tert-butyl ester]
7.89	CC(C)(C)OC(=O)N1C[C@@H](OCc2ccc(C#N)cc2)C[C@@H]1C(=O)N1CCCN(C2CCC2)CC1 [Example 149, (2R,4S)-4-(4-Cyano-benzyloxy)-2-(4-cyclobutyl-[1,4]diazepane-1-carbonyl)-pyrrolidine-1-carboxylic acid tert-butyl ester]
7.28	CC(C)(C)OC(=O)N1C[C@H](Cc2ccc(F)cc2)C[C@H]1C(=O)N1CCCN(C2CCC2)CC1 [Example 174, (2S,4R)-2-(4-Cyclobutyl-[1,4]diazepane-1-carbonyl)-4-(4-fluoro-benzyl)pyrrolidine-1-carboxylic acid tert-butyl ester]
7.14	CC(C)(C)OC(=O)N1C[C@H](Cc2cccc(F)c2)C[C@H]1C(=O)N1CCCN(C2CCC2)CC1 [Example 175, (2S,4R)-2-(4-Cyclobutyl-[1,4]diazepane-1-carbonyl)-4-(3-fluoro-benzyl)-pyrrolidine-1-carboxylic acid tert-butyl ester]
